Assay results as given in patent US6413747B1, “Enhancement of nucleic acid amplification by the addition of a polyamine” (Shimadzu Corporation, priority 1994, dated 2002).
“Also recorded” adds a separate entry of the source.

Experiments:
[1] = system: HIV DNA; assay: PCR with human white blood cells, 2 mM polyamine, varying number of HIV DNA copies (Experiment No. 2); assay type: biochemical, HIV-1; settings: polyamine 2 mM; for number of HIV DNA copies detected (lowest): 40 cycles, copies/tube
Method: White blood cells were obtained by taking 14 μl (7×10^4 WBC) of human blood, centrifuging it and removing therefrom the supernatant. Various polyamines (2 mM), HIV DNA (1000, 100 10 and 0 copies/tube) and PCR core solution were added to the white blood cells thus collected for carrying out PCR (total 50 μl ). The same PCR core solution was used as in Experiment No. 1. The PCR was carried out for 40 cycles under the same conditions as in Experiment 1, and the amplification detection was carried out as in Experiment No. 1.

[2] = system: DNA from LT Escherichia coli; assay type: biochemical; settings: for maximum concentration of feces at which amplification bands are observed, relative to no addition of polyamine (J) / appearance of amplification bands: polyamine 1 mM; for maximum concentration of feces at which amplification bands are observed, relative to no addition of polyamine (J): 40 cycles; for reduction of inhibition of PCR due to feces (summary): human feces samples; for appearance of amplification bands: human feces
Method: A sample was obtained by making an 8% suspension of human feces in TE buffer and subjecting it to a heat treatment at 95° C. for 10 minutes. […] The detection was carried out as in Experiment No. 1.

[3] = system: β-globin coding region of the mouse; assay: PCR on white blood cells of mouse blood added to human blood, with spermidine (Example No. 2); assay type: biochemical; settings: spermidine 2 mM, no purification of DNA
Method: Used as the sample was 23 μl of human blood (with 6000 white blood cells/microliter) into which 5 μl of mouse blood, diluted step-wise with a phosphate buffer, was added. After the sample was subjected to a lysis process of red blood cells, the white blood cells were precipitated by centrifugation and the supernatant was removed. Polyamine and PCR core solution were added to the precipitated white cells. The primers for the PCR were oligonucleotide (P3, sequence number=3) homologous to plus-chain and oligonucleotide (P4, sequence number=4) homologous to minus-chain, which are located in the β-globin coding region of the mouse and what gives 174 bp PCR products: where
The same PCR core solution was used as in Example No. 1 except that the primers were P3 and P4. The total amount of the PCR reaction solution was 100 μl, and 10 μl of spermidine solution (final concentration: 2 mM) was added. PCR and detection of amplified DNA were carried out as in Example No. 1. […] If polyamine is added (Group A), by contrast, the inhibition of the amplification reaction is effectively removed, and the presence of PCR products can be detected if there are as few as about ten white blood cells of the mouse without any purification of DNA.

[4] = system: DNA; assay: PCR with soil or tobacco leaf extract and spermidine (Example No. 3); assay type: biochemical; settings: extract from soil or tobacco leaf (Groups B and C, Lanes 2-4)
Method: Used as the sample was 100 mg of sandy soil from a rice field or 100 mg of homogenized tobacco leaf. The sample was dissolved with 0.1 M EDTA and 0.1% SDS, purified with weakly negative ion-exchange resin (DEAE-Sepharose, fast flow (Pharmacia)), and eluted with 400 μl of 10 mM of tris-HCl (pH 7.0) containing 1 M NaCl. The extract which was colored light brown or light green indicated existence of much contamination of impurities for rough purification material. PCR was carried out after polyamine and PCR core solution were added to the extract. PCR core solution was prepared by removing KCl from the core solution used in Example No. 1. The amount of the PCR core solution was 24 μl, and 3 μl each of DNA-containing extract and spermidine solution was added thereto. PCR and detection of amplified DNA was carried out as in Example No. 1.
In FIG. 5, A indicates a positive control group containing only DNA, B indicates a group with soil extract mixed thereto, and C indicates a group with a tobacco leaf extract mixed thereto. The final concentration of polyamine was zero in Lane 1, 0.5 mM in Lane 2, 1 mM in Lane 3, 2 mM in Lane 4, 4 mM in Lane 5 and 8 mM in Lane 6. Lane M indicates a molecular weight marker.

[5] = system: HIV DNA; assay: PCR with human white blood cells, varying polyamine concentration (Experiment No. 1); assay type: biochemical, HIV-1
Method: White blood cells were obtained by taking 14 μl (7×10^4 WBC) of human blood, centrifuging it and removing therefrom the supernatant. Various kinds of polyamine, HIV DNA (100 copies/tube) and PCR core solution were added to the white blood cells thus collected for carrying out PCR (total 50 μl).
After a preheating process of 4 minutes at 94° C., the PCR was carried out for 50 cycles under the conditions of 94° C. for 30 seconds, 60° C. for 1 minute and 72° C. for 1 minute, followed by a polymerization process at 72° C. for 7 minutes. After the PCR was completed, DNAs were detected by electrophoresis with 3% agarose gel containing TAE buffer (40 mM Tris-acetate; 1 mM EDTA, pH 8.0) with 0.5 μg/ml etidium bromide by using 5 μl of the reaction mixture.
and the numerals (1-7) in FIG. 6 indicate the final concentration of polyamine as follows: […]

[6] = system: genomic DNA purified from cotton leaves; settings: DNA isolated from plants; report by Wan and Wilkins; cited from earlier work

Compound | number of HIV DNA copies detected (lowest) [1] | maximum concentration of feces at which amplification bands are observed, relative to no addition of polyamine (J) [2] | reduction of inhibition of PCR due to feces (summary) [2] | further results
NCCN [A, Ethylenediamine] | 10 copies | 4 times |  | 
NCCCCN [C, Putrescine] | 10 copies | twice as large | hardly any effect | 
NCCNCCN [D, Diethylenetriamine] | 10 copies | 8 times |  | sensitivity relative to E [1]: about 10 times; appearance of amplification bands [2]: brighter and thicker amplification bands than E
NCCCCNCCCN [E, Spermidine] |  | 8 times |  | number of white blood cells of the mouse at which PCR products can be detected [3]: about ten; polyamine concentration at which PCR products can be detected [4]: 0.5 to 2 mM; amplification ([5]; polyamine concentration 0.25 mM, human blood): No amplification; optimum concentration [6]: 0.2 to 1 mM
NCCNCCNCCN [F, Triethylenetetramine] | 10 copies | 16 times | good results | 
NCCCNCCCCNCCCN [G, Spermine] | could not be detected | 4 times | hardly any effect | effect on PCR-inhibiting substances derived from blood ([5]; polyamine 0.125-8 mM, human white blood cells, 100 copies HIV DNA/tube, 50 cycles): hardly any effect; also recorded: no such effect was observed; appearance of amplification bands [2]: only thin amplification bands
NCCNCCNCCNCCN [H, Tetraethylenepentamine] | 10 copies |  | good results | 
Trimethylenediamine [B] | 10 copies | twice as large | hardly any effect | 
